Experimental data: patent US10179355B2, “Bioremediation enhancing agents and methods of use” (JRW BIOREMEDIATION, LLC, priority 2007, dated 2019)
Values joined by “and” are separate entries in the source; they are usually repeats but may differ in a detail not shown here. Identical values can stand only once.

Assays:
[1] = system: dechlorinating bacteria known to convert PCE to ethene; experiment: Set D: Efficiency by COD Analysis; assay type: cell-based, Dehalococcoides and Dehalobacter spp.
Description: Efficiency may be defined as the percent of electron donor utilized for dechlorination, and may be calculated by dividing the pmoles of Chloride ion generated by the pmoles of electron donor consumed as measured by either Volatile Fatty Acid (VFA) analysis (Sets B, C, and G) or Chemical Oxygen Demand (COD) analysis (Set D and E). The Relative Efficiency of the electron donor utilization may be defined as the Efficiency of the Electron Donor divided by the Efficiency of the Lactate Control.
The COD analysis calculates the utilization of electron donor by measuring the starting COD and the final COD taking the difference and converting mg/L to pmoles of electrons. The pmoles of electrons used for dechlorination was determined from the calculated Chloride produced leading to an Efficiency and Relative Efficiency of electron donor utilization as compared to lactate.

[2] = system: dechlorinating bacteria known to convert PCE to ethene; experiment: Set G: Additional Yeast Metabolites and Polysaccharides as Nutrients, PCE dechlorination microcosms (kinetics, Relative Rate, paired t-test); assay type: cell-based, Dehalococcoides and Dehalobacter spp.
Description: Certain contaminated materials (or sites) may contain indigenous microbial communities that are sufficient for complete bioremediation of contaminants. For such sites, there is no need to add microbes unless the indigenous microbes are genetically deficient in achieving the desired clean-up goals. For those sites that are microbiologically limited, microorganisms may be added to the contaminated materials (or sites). In one embodiment, the inoculum may be a mixed culture of halo-respiring bacteria that have been enriched to reach an optimal cell density. These mixed cultures of halo-respiring bacteria may be typically obtained from sediment samples from rivers, streams or any waterways. More specifically, the inoculum used in the Examples was originated from a Sangamon River sediment sample (Lodge Park, Piatt County, Ill.) See, e.g., Brennan, R. A., Sanford, R. A. and Werth, C. J. (2006). “Biodegradation of Tetrachloroethene by Chitin Fermentation Products in a Continuous Flow Column System.” Journal of Environ. Engr., June 665-673. This culture had grown for several years on PCE, anaerobic basal salts medium, Wolfe's vitamin solution and various electron donors including lactate (1-2 millimolar (mM)), formate (4 mM) and chitin using the Volatile Interface Transfer Apparatus (VITA) reactor system at the University of Illinois. Brennan, R. A., and Sanford, R. A. (2002). “Continuous steady-state method using Tenax for delivering tetrachloroethene to chlororespiring bacteria.” Appl. Environ. Microbiol., 68(3), 1464-1467. […] Using 16S rRNA gene-specific primers, both Dehalococcoides and Dehalobacter spp. were detected. Quantitative real-time PCR has been used to determine that approximately 1.65×10^7 Dehalococcoides gene copies were present per ml of culture.
For purpose of this disclosure, each bottle may be started with a certain amount of PCE. At subsequent times each bottle may be sampled for the degradation daughter products of PCE, namely trichloroethene (TCE), cis-dichloroethene (DCE), vinyl chloride (VC) and ethene, etc. Trans-DCE and 1,1-DCE are also daughter products of PCE, but they may not be detectable under the conditions disclosed here.
The rate of degradation may be determined by calculating the number of pmoles of chloride ions removed from PCE and subsequently from the amounts of the daughter products generated. The calculation may be performed as follows: Chloride (μmoles)=[…]−4×PCE (μmoles)−3×TCE (pmoles)−2×DCE (μmoles)−VC (μmoles)
The alternative chloride calculation is: Chloride (μmoles)=TCE (μmoles)+2×DCE (μmoles)+3×VC (μmoles)+4×Ethene (μmoles)
Next, the dechlorination rate may be determined for each bottle at each time by dividing the Chloride generated by the time (days). The data may be then normalized to the lactate control by taking the ratio of Chloride Rate (pmoles/day) and the Lactate Control Chloride Rate (pmoles/day). This ratio is called Relative Rate and is dimensionless.
As shown in the Examples, a paired t-test has been conducted to calculate the probability that the Relative Rate of one group (i.e. with Nutrient) is greater than the other group (i.e. without Nutrient). The null hypothesis is that the underlying means of the two paired groups are equal. The Probability that one group has higher Relative Rates than the other group is shown in various tables in the Examples.
The following components were used in the system for bioremediating contaminated ground water microcosms in Examples 2-8: • 160 milliliter (ml) stoppered serum bottles • 100 ml of anaerobic culture medium, groundwater containing an excess of bioavailable phosphorus and nitrogen at 0.5 mM Phosphate and 1 mM ammonium degassed with a nitrogen sparge • Nominally 1 gram of limestone • 19.54 micromoles (pmoles) Perchloroethene (PCE) • An excess of various electron donors were utilized • 3 ml of inoculum containing dechlorinating bacteria known to convert PCE to ethene. […]

With `CC(O)C(=O)[O-].[Na+]` (centres unmarked) [Lactate Control, sodium lactate] as the molecule, how does the “% of e^− used for dechlor.” value [1] read?
The value was 7%.

What about the Chloride ([1]; Efficiency by COD Analysis) of the same molecule?
The Chloride was 64.63 µmol.

And the “Relative Efficiency” value ([1]; relative to Lactate Control)?
The value was 100%.

And the “Cl^− Rate ± s.d.” value ([2]; 0 days)?
Its value is 0.00 ± 0.00 µmol.

And the “Cl^− ± s.d.” value ([2]; 0 days)?
Its value is 0.00 ± 0.00 µmol.

What about the “DCE ± s.d.” value ([2]; 0 days) of the same molecule?
Its value is 0.00 ± 0.00 µmol.

And the “Ethene ± s.d.” value ([2]; 0 days)?
The value was 0.00 ± 0.00 µmol.

And the “PCE ± s.d.” value ([2]; 0 days)?
Its value is 20.80 ± 0.95 µmol.

And the “TCE ± s.d.” value ([2]; 0 days)?
The value was 0.00 ± 0.00 µmol.

And the “VC ± s.d.” value ([2]; 0 days)?
The value was 0.00 ± 0.00 µmol.

And the “Cl^− Rate ± s.d.” value ([2]; 21 days)?
Its value is 0.13 ± 0.05 µmol.

What about the “Cl^− ± s.d.” value ([2]; 21 days) of the same molecule?
Its value is 2.83 ± 1.04 µmol.

What about the “DCE ± s.d.” value ([2]; 21 days) of the same molecule?
The value was 0.31 ± 0.18 µmol.

What about the “Ethene ± s.d.” value ([2]; 21 days) of the same molecule?
Its value is 0.07 ± 0.01 µmol.

And the “PCE ± s.d.” value ([2]; 21 days)?
The value was 18.6 ± 0.45 µmol.

What about the “TCE ± s.d.” value ([2]; 21 days) of the same molecule?
The value was 1.91 ± 0.71 µmol.

And the “VC ± s.d.” value ([2]; 21 days)?
The value was 0.00 ± 0.00 µmol.

And the “Cl^− Rate ± s.d.” value ([2]; 35 days)?
The value was 0.26 ± 0.10 µmol.

What about the “Cl^− ± s.d.” value ([2]; 35 days) of the same molecule?
Its value is 8.95 ± 3.33 µmol.

What about the “DCE ± s.d.” value ([2]; 35 days) of the same molecule?
Its value is 1.39 ± 0.72 µmol.

And the “Ethene ± s.d.” value ([2]; 35 days)?
Its value is 0.07 ± 0.00 µmol.

And the “PCE ± s.d.” value ([2]; 35 days)?
Its value is 10.80 ± 1.36 µmol.

And the “TCE ± s.d.” value ([2]; 35 days)?
Its value is 5.91 ± 1.90 µmol.

What about the “VC ± s.d.” value ([2]; 35 days) of the same molecule?
Its value is 0.00 ± 0.00 µmol.

What about the “Cl^− Rate ± s.d.” value ([2]; 50 days) of the same molecule?
Its value is 0.49 ± 0.10 µmol.

What about the “Cl^− ± s.d.” value ([2]; 50 days) of the same molecule?
Its value is 24.59 ± 5.08 µmol.

What about the “DCE ± s.d.” value ([2]; 50 days) of the same molecule?
Its value is 9.70 ± 2.99 µmol.

And the “Ethene ± s.d.” value ([2]; 50 days)?
Its value is 0.07 ± 0.00 µmol.

And the “PCE ± s.d.” value ([2]; 50 days)?
Its value is 3.13 ± 1.26 µmol.

What about the “TCE ± s.d.” value ([2]; 50 days) of the same molecule?
Its value is 4.92 ± 1.03 µmol.

And the “VC ± s.d.” value ([2]; 50 days)?
The value was 0.00 ± 0.00 µmol.

And the “Cl^− Rate ± s.d.” value ([2]; 79 days)?
Its value is 0.53 ± 0.02 µmol.

And the “Cl^− ± s.d.” value ([2]; 79 days)?
The value was 42.00 ± 1.93 µmol.

And the “DCE ± s.d.” value ([2]; 79 days)?
Its value is 20.84 ± 0.96 µmol.

And the “Ethene ± s.d.” value ([2]; 79 days)?
Its value is 0.07 ± 0.00 µmol.

What about the “PCE ± s.d.” value ([2]; 79 days) of the same molecule?
The value was 0.00 ± 0.00 µmol.

What about the “TCE ± s.d.” value ([2]; 79 days) of the same molecule?
The value was 0.04 ± 0.07 µmol.

What about the “VC ± s.d.” value ([2]; 79 days) of the same molecule?
The value was 0.00 ± 0.01 µmol.

And the “Cl^− Rate ± s.d.” value ([2]; 138 days)?
The value was 0.24 ± 0.01 µmol.

And the “Cl^− ± s.d.” value ([2]; 138 days)?
Its value is 33.42 ± 1.26 µmol.

What about the “DCE ± s.d.” value ([2]; 138 days) of the same molecule?
The value was 16.55 ± 0.64 µmol.

What about the “Ethene ± s.d.” value ([2]; 138 days) of the same molecule?
The value was 0.06 ± 0.00 µmol.

And the “PCE ± s.d.” value ([2]; 138 days)?
The value was 0.00 ± 0.00 µmol.

What about the “TCE ± s.d.” value ([2]; 138 days) of the same molecule?
The value was 0.00 ± 0.00 µmol.

What about the “VC ± s.d.” value ([2]; 138 days) of the same molecule?
The value was 0.03 ± 0.03 µmol.

And the “Relative Rate” value ([2]; bottle 1, 21 days)?
Its value is 0.78.

What about the “Relative Rate” value ([2]; bottle 1, 35 days) of the same molecule?
Its value is 0.63.

What about the “Relative Rate” value ([2]; bottle 1, 50 days) of the same molecule?
The value was 0.86.

What about the “Relative Rate” value ([2]; bottle 1, 79 days) of the same molecule?
The value was 1.08.

What about the “Relative Rate” value ([2]; bottle 1, 138 days) of the same molecule?
Its value is 0.51.

What about the “Relative Rate” value ([2]; bottle 2, 21 days) of the same molecule?
Its value is 1.43.

And the “Relative Rate” value ([2]; bottle 2, 35 days)?
The value was 1.37.

What about the “Relative Rate” value ([2]; bottle 2, 50 days) of the same molecule?
The value was 1.24.

And the “Relative Rate” value ([2]; bottle 2, 79 days)?
Its value is 1.13.

What about the “Relative Rate” value ([2]; bottle 2, 138 days) of the same molecule?
Its value is 0.49.

And the “Relative Rate” value ([2]; bottle 3, 21 days)?
The value was 0.80.

And the “Relative Rate” value ([2]; bottle 3, 35 days)?
The value was 1.00.

What about the “Relative Rate” value ([2]; bottle 3, 50 days) of the same molecule?
The value was 0.90.

What about the “Relative Rate” value ([2]; bottle 3, 79 days) of the same molecule?
The value was 1.03.

And the “Relative Rate” value ([2]; bottle 3, 138 days)?
Its value is 0.48.

What about the “dechlorination kinetics / completeness of dechlorination (in words)” value ([2]; through 138 days) of the same molecule?
The value was “statistically higher dechlorination kinetics as compared to PS1 and molasses”.

And the “Relative Rate” value ([2]; time 21 days, bottles 1-3)?
Its value is 1.43 and 0.80 and 0.78.

And the “Relative Rate” value ([2]; time 50 days, bottles 1-3)?
The value was 1.24 and 0.90 and 0.86.

What about the “Relative Rate” value ([2]; time 79 days, bottles 1-3) of the same molecule?
The value was 1.08 and 1.13 and 1.03.

What about the “Relative Rate” value ([2]; time 138 days, bottles 1-3) of the same molecule?
The value was 0.51 and 0.49 and 0.48.
